Measured values taken from patent US20230348520A1, “COMPOUND COMPRISING BETA-NICOTINAMIDE MONONUCLEOTIDE OR PHARMACOLOGICALLY ACCEPTABLE SALT THEREOF, AND METHOD FOR EVALUATING QUALITY AND METHOD FOR ASSESSING ENZYMATIC REACTIVITY OF SAID COMPOUND” (ORIENTAL YEAST CO., LTD., priority 2020, published 2023).

Legend:
[1] = biological target: R-LDH5 (lactate dehydrogenase (LDH) 5, SEQ ID NO: 1, derived from skeletal muscle) (Oryctolagus cuniculus, UniProt P13491, L277I/T249S); assay: Evaluation of enzymatic reactivity with lactate dehydrogenase R-LDH5 (Test Examples 1 and 2); type: biochemical; details: 19 mM β-NMN in R1 reagent; R-LDH5 245 U/mL final; 37° C.; 340 nm; one unit = 0.1 mAbs change in absorbance per minute; average of three measurements
Description: The lactate dehydrogenase is preferably lactate dehydrogenase derived from mammalian skeletal muscle, and more preferably lactate dehydrogenase (LDH) 5 (hereinafter may be referred to as “R-LDHS”). The R-LDHS has an amino acid sequence as set forth in SEQ ID NO: 1, is composed of a tetramer of sub-units, and is derived from skeletal muscle. Other lactate dehydrogenases of any mammal can also be used, such as porcine lactate dehydrogenase (LDH) 1, human lactate dehydrogenase (LDH) 1, and human lactate dehydrogenase (LDH) 5. The LDH catalyzes dehydrogenation of lactic acid as a substrate, to convert the lactic acid to pyruvic acid. At this time, the β-NMN is converted to a reduced form of β-NMN (see FIG. 1).
In the present invention, the enzymatic reactivity refers to a value obtained through measurement using the following reagents and method.
(The purity of the β-NMN in a measurement sample is assumed to be 100%. Also, the β-NMN is dissolved in an 80 mM sodium carbonate solution in advance.)
The enzyme solution is prepared so that the LDH is to be 245 U/mL as a final concentration in a reaction liquid.
In the present invention, the activity unit (U) of the LDH is an activity unit measured by the human LDH measurement method according to IFCC when using NAD as a coenzyme.
An enzyme activity is measured using a 7180 type Hitachi automatic analyzer (obtained from Hitachi High-Tech Corporation). Measurement parameters are as follows.
Analysis method: Rate A Measurement wavelength (sub/main): 405 nm/340 nm Reaction duration: 10 minutes Photometric points: 20 to 24 Sample liquid (enzyme solution): 18 μL R1 reagent: 120 μL R2 reagent: 87 μL
18 μL of the enzyme solution and 120 μL of the R1 reagent are mixed. The resulting mixture is incubated at 37° C. for 4.5 minutes (photometric points 1 to 16), followed by addition of 87 μL of the R2 reagent, to initiate reaction (photometric point 17). From the absorbance of the measurement sample one to two minutes after initiation of the reaction (photometric points 20 to 24), the absorbance of water (blank) at the same photometric points is subtracted, to calculate a value of change in absorbance per minute (ΔmAbs/min). Regarding the activity unit (the unit of reactivity with the lactate dehydrogenase R-LDH5), 0.1 mAbs as the value of change in absorbance per minute is defined as one unit.
By the following method, the β-NMN compound of the present invention (Production Example 1) and β-NMN products 1 to 3 were measured for the enzymatic reactivity with R-LDHS (SEQ ID NO: 1). Note that, the measurement results are average values in the measurement performed three times.
(The purity of the β-NMN in a measurement sample was assumed to be 100%. Also, the β-NMN was dissolved in an 80 mM sodium carbonate solution in advance.)
The enzyme solution was prepared so that the R-LDH5 was to be 245 U/mL as a final concentration in a reaction liquid.
An enzyme activity was measured using a 7180 type Hitachi automatic analyzer (obtained from Hitachi High-Tech Corporation). Measurement parameters are as follows.
Analysis method: Rate A Measurement wavelength (sub/main): 405 nm/340 nm Reaction duration: 10 minutes Photometric points: 20 to 24 Sample liquid (enzyme solution): 18 μL
18 μL of the enzyme solution and 120 μL of the R1 reagent were mixed. The resulting mixture was incubated at 37° C. for 4.5 minutes (photometric points 1 to 16), followed by addition of 87 μL of the R2 reagent, to initiate reaction (photometric point 17). Measurements were taken for five minutes after initiation of the reaction. From the absorbance of the measurement sample at minute one to minute two after the initiation (photometric points 20 to 24), the absorbance of water (blank) at the same photometric points was subtracted, to calculate a value of change in absorbance per minute (ΔmAbs/min). Regarding the activity unit, 0.1 mAbs as the value of change in absorbance per minute was defined as one unit. […]

[2] = tested on: HEK293 cells; assay: Cytotoxicity rate from intra- and extracellular AST activities in culture cells (Test Example 5); type: cell-based; details: nonadherent HEK293 cells; 0.1 mM β-NMN; shake-cultured seven days without exchange of the medium; FIGS. 5A, 5B
[3] = tested on: HEK293 cells; assay: Intracellular NAD content in culture cells (Test Example 5); type: cell-based; details: nonadherent HEK293 cells; 0.1 mM β-NMN; shake-cultured seven days without exchange of the medium; FIGS. 6A, 6B
Protocol: In order to evaluate biological activities of the β-NMN compounds of Production Example 1 and the β-NMN product 3, culture cells were cultured in a medium containing the β-NMN compound, to measure change in intracellular NAD.
The culture cells used were HEK293 cells that had been treated to be nonadherent. The medium used was FreeStyle™ 293 Expression Medium (obtained from Thermo Fisher Scientific).
First, the HEK293 cells, which had been treated to be nonadherent, were disseminated in the medium so as to have a concentration of 1×10^6 cells/mL. The resulting medium was dispensed into six 125 mL-flasks by 30 mL each. The flasks were supplemented with the β-NMN compounds of Production Example 1 and the β-NMN product 3 so as to have a final concentration of 0 or 0.1 mM. Without exchange of the medium, the cells were shake-cultured for seven days in a CO2 incubator at 37° C.
After shake-culturing for seven days, the cells and the culture supernatant were recovered for various analyses. […] Specifically, the recovered cells were weighed and were extracted with Extraction buffer attached to a kit, and the resulting extract was measured for NAD. The intracellular NAD content was calculated based on a calibration curve obtained by measuring NAD solutions of various concentrations.

[4] = biological target: R-LDH5 (lactate dehydrogenase, SEQ ID NO: 1) (Oryctolagus cuniculus, UniProt P13491, L277I/T249S); assay: Dependency of LDH activity value on β-NMN compound concentration, R-LDH5 (Test Example 4); type: biochemical; details: R-LDH5 245 U/mL; for relative activity value of LDH, dependency on β-NMN concentration: 0-200 mM β-NMN in R1 reagent, compared with Production Example 1, FIGS. 4B, 4C
Protocol: (§1) In order to confirm dependency of a LDH activity value on the β-NMN compound concentration, the β-NMN compound produced in Production Example 1 and β-NMN products 1 to 3 the same as those used in Test Example 1 were used for measurement of an enzyme activity of LDH at varied concentrations of the β-NMN in the R1 reagent.
(§2) The enzyme activity of LDH was measured in the same manner as in [Evaluation of enzymatic reactivity] of Test Example 1 except that the following R1 reagent and enzyme solution were used, to calculate a value of change in absorbance per minute (ΔmAbs/min). Regarding as 100% the activity value of LDH when the β-NMN compound of Production Example 1 was used at 200 mM, the relative activity values (%) in each NMN at each concentration are presented in FIGS. 4A to 4F (FIGS. 4A to 4C: R-LDH5 and FIGS. 4D and 4F: human LDH1). Note that, the measurement results are average values in the measurement performed three times.
(§3) (The purity of the β-NMN in a measurement sample was assumed to be 100%. Also, the β-NMN was dissolved in a 100 mM sodium carbonate solution in advance.)
An enzyme solution was prepared so that the LDH was to be 245 U/mL as a final concentration in a reaction liquid.

[5] = biological target: human lactate dehydrogenase (LDH) 1 (SEQ ID NO: 2) (Homo sapiens, UniProt P07195); assay: Dependency of LDH activity value on β-NMN compound concentration, human LDH1 (Test Example 4); type: biochemical; details: human LDH1 45 U/mL; 0-200 mM β-NMN in R1 reagent; compared with Production Example 1; FIGS. 4D to 4F
Protocol: as §1, §2, §3
An enzyme solution was prepared so that the LDH was to be 45 U/mL as a final concentration in a reaction liquid.

human lactate dehydrogenase (LDH) 1 (SEQ ID NO: 2), sequence (P07195 whole entry): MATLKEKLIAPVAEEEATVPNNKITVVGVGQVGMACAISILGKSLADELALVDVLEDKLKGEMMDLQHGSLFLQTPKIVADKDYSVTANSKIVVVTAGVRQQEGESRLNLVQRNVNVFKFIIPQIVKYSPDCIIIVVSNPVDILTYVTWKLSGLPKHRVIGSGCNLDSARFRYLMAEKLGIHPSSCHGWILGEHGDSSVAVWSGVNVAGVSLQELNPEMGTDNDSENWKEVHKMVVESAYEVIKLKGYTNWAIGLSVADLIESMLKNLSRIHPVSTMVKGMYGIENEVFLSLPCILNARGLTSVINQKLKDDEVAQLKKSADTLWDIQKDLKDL

| Enzymatic reactivity (unit) [1] [unit] | enzymatic activity of LDH at a β-NMN concentration of 200 mM ([4]; 200 mM β-NMN in R1 reagent, FIG. 4A) | SMILES | cytotoxicity rate determined based on intra- and extracellular AST activities [2] | intracellular NAD content [3] | relative activity value of LDH, dependency on β-NMN concentration [5] | relative activity value of LDH, dependency on β-NMN concentration [4] |
| --- | --- | --- | --- | --- | --- | --- |
| 39 | – | NC(=O)c1ccc[n+]([C@@H]2O[C@H](COP(=O)([O-])O)[C@@H](O)[C@H]2O)c1 [Production Example 1, β-nicotinamide mononucleotide] | lower when the β-NMN compound of Production Example 1 was added than when the β-NMN compound of the β-NMN product 3 was added | higher when the β-NMN compound of Production Example 1 was added than when the β-NMN compound of the β-NMN product 3 was added | – | – |
| 40 | – | NC(=O)c1ccc[n+]([C@@H]2O[C@H](COP(=O)([O-])O)[C@@H](O)[C@H]2O)c1 [Production Example 2, β-nicotinamide mononucleotide] | – | – | – | – |
| 38 | – | NC(=O)c1ccc[n+]([C@@H]2O[C@H](COP(=O)([O-])O)[C@@H](O)[C@H]2O)c1 [Production Example 3, β-nicotinamide mononucleotide] | – | – | – | – |
| 35 | – | NC(=O)c1ccc[n+]([C@@H]2O[C@H](COP(=O)([O-])O)[C@@H](O)[C@H]2O)c1 [Production Example 4, β-nicotinamide mononucleotide] | – | – | – | – |
| 23 | could not be measured | NC(=O)c1ccc[n+]([C@@H]2O[C@H](COP(=O)([O-])O)[C@@H](O)[C@H]2O)c1 [β-NMN product 1, β-nicotinamide mononucleotide] | – | – | larger differences in the activity value from the β-NMN compound of Production Example 1 as the β-NMN concentration increased | – |
| 27 | – | NC(=O)c1ccc[n+]([C@@H]2O[C@H](COP(=O)([O-])O)[C@@H](O)[C@H]2O)c1 [β-NMN product 2, β-nicotinamide mononucleotide] | – | – | larger differences in the activity value from the β-NMN compound of Production Example 1 as the β-NMN concentration increased | the difference in the activity value from the β-NMN compound of Production Example 1 became larger as the β-NMN concentration increased |
| 26 | – | NC(=O)c1ccc[n+]([C@@H]2O[C@H](COP(=O)([O-])O)[C@@H](O)[C@H]2O)c1 [β-NMN product 3, β-nicotinamide mononucleotide] | – | – | larger differences in the activity value from the β-NMN compound of Production Example 1 as the β-NMN concentration increased | the difference in the activity value from the β-NMN compound of Production Example 1 became larger as the β-NMN concentration increased |
